Data from PubChem BioAssay AID248 (DTP/NCI, 2004).
Where “and” joins values, the source holds several entries; their conditions need not be identical. Identical values can stand only once. Toxic doses and inconclusive results are not listed. Rule as the data show it: active = T/C of 150% or more; inactive = T/C below 125%.

System: L1210 leukemia ip in BDF1 mice, survival T/C
Assay: NCI In Vivo Anticancer Drug Screen. Data for tumor model L1210 Leukemia (intraperitoneal) in B6D2F1 (BDF1) mice
Conditions: endpoint: mean survival time, higher = longer survival
In short: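 Tumor was transplanted into mice, which were then dosed with test compound or vehicle alone. Survival was recorded for each group, and the treated figure was expressed relative to the control figure.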

[1] = dose: 50.0 mg/kg/injection, schedule: Q01DX001 (ip), vehicle: Klucel (hydroxypropylcellulose) (HPC)
[2] = dose: 400.0 mg/kg/injection, schedule: Q01DX001 (ip), vehicle: Klucel (hydroxypropylcellulose) (HPC)
[3] = dose: 100.0 mg/kg/injection, schedule: Q04DX002 (ip), vehicle: Klucel (hydroxypropylcellulose) (HPC)
[4] = dose: 200.0 mg/kg/injection, schedule: Q04DX002 (ip), vehicle: Klucel (hydroxypropylcellulose) (HPC)
[5] = dose: 400.0 mg/kg/injection, schedule: Q04DX002 (ip), vehicle: Klucel (hydroxypropylcellulose) (HPC)
[6] = dose: 100.0 mg/kg/injection, schedule: Q01DX001 (ip), vehicle: Klucel (hydroxypropylcellulose) (HPC)
[7] = dose: 100.0 mg/kg/injection, schedule: Q04DX003 (ip), vehicle: Klucel (hydroxypropylcellulose) (HPC)
[8] = dose: 200.0 mg/kg/injection, schedule: Q01DX001 (ip), vehicle: Klucel (hydroxypropylcellulose) (HPC)
[9] = dose: 200.0 mg/kg/injection, schedule: Q04DX003 (ip), vehicle: Klucel (hydroxypropylcellulose) (HPC)
[10] = dose: 400.0 mg/kg/injection, schedule: Q04DX003 (ip), vehicle: Klucel (hydroxypropylcellulose) (HPC)
[11] = dose: 100.0 mg/kg/injection, schedule: Q04DX003 (ip), vehicle: saline
[12] = dose: 100.0 mg/kg/injection, schedule: Q01DX001 (ip), vehicle: saline
[13] = dose: 200.0 mg/kg/injection, schedule: Q01DX001 (ip), vehicle: saline
[14] = dose: 400.0 mg/kg/injection, schedule: Q01DX001 (ip), vehicle: saline
[15] = dose: 100.0 mg/kg/injection, schedule: Q01DX001 (ip), vehicle: carboxymethylcellulose (CMC)
[16] = dose: 200.0 mg/kg/injection, schedule: Q01DX001 (ip), vehicle: carboxymethylcellulose (CMC)
[17] = dose: 400.0 mg/kg/injection, schedule: Q01DX001 (ip), vehicle: carboxymethylcellulose (CMC)
[18] = dose: 100.0 mg/kg/injection, schedule: Q01DX009 (ip), vehicle: saline with Tween-80
[19] = dose: 100.0 mg/kg/injection, schedule: Q04DX002 (ip), vehicle: saline with Tween-80
[20] = dose: 50.0 mg/kg/injection, schedule: Q01DX009 (ip), vehicle: saline with Tween-80

Measured: T/C

CCCCCCCCCCCCCCSCCSCCSCCCCCCCCCCCCCC
inactive: dose: 12.5 mg/kg/injection, schedule: Q01DX001 (ip), vehicle: Klucel (hydroxypropylcellulose) (HPC) 103 % of control | dose: 25.0 mg/kg/injection, schedule: Q01DX001 (ip), vehicle: Klucel (hydroxypropylcellulose) (HPC) 97 % of control | [1] 89 % of control | [2] 87 % of control

O=C(NNc1ccccc1)C(O)C(O)C(O)C(O)C(O)CO (centres undefined)
inactive: [3] 98 % of control | [4] 95 % of control | [5] 91 % of control

Cc1ccc2c(CCCC(=O)O)c(C)c(=O)oc2c1
inactive: [6] 98 % of control | [7] 103 % of control | [8] 98 % of control | [9] 96 % of control | [2] 100 % of control | [10] 88 % of control

CC(=O)OC1=C(Cl)C(=O)C(OC(C)=O)=C(Cl)C1=O
inactive: dose: 50.0 mg/kg/injection, schedule: Q04DX003 (ip), vehicle: Klucel (hydroxypropylcellulose) (HPC) 106 % of control | [7] 100 % of control | [9] 100 % of control | [10] 92 % of control

CN(C)CCOC(=O)c1cc(CCBr)cc(CCBr)c1
inactive: dose: 2.5 mg/kg/injection, schedule: Q01DX009 (ip), vehicle: saline 92 % of control | dose: 5.0 mg/kg/injection, schedule: Q01DX009 (ip), vehicle: saline 97 % of control | dose: 10.0 mg/kg/injection, schedule: Q01DX009 (ip), vehicle: Klucel (hydroxypropylcellulose) (HPC) 95 % of control | dose: 10.0 mg/kg/injection, schedule: Q01DX009 (ip), vehicle: saline 94 % of control

Nc1ccc(C(=O)N/N=C\c2cccc3ccccc23)cc1
inactive: [3] 97 % of control | [4] 90 % of control | [5] 93 % of control

CCCCCCCCCCCCCNCCCCCCCCCCCCC
inactive: [11] 96 % of control | dose: 200.0 mg/kg/injection, schedule: Q04DX003 (ip), vehicle: saline 92 % of control | dose: 400.0 mg/kg/injection, schedule: Q04DX003 (ip), vehicle: saline 96 % of control

Cc1ccc(C(=O)N/N=C/c2ccc3ccccc3c2)cc1
inactive: [3] 95 % of control | [4] 103 % of control | [5] 95 % of control

CC(=O)OCC1OC(n2cnc3c(Cl)nc(Cl)nc32)CC1OC(C)=O (centres undefined)
inactive: [12] 101 % of control | [13] 101 % of control | [14] 101 % of control

CCOc1ncnc2c1ncn2-c1cccc(C)c1
inactive: dose: 50.0 mg/kg/injection, schedule: Q01DX001 (ip), vehicle: carboxymethylcellulose (CMC) 98 % of control | [15] 110 % of control | [16] 101 % of control | [17] 98 % of control

CCCCCCCCCCCCSC(=O)Nc1cc([N+](=O)[O-])ccc1C
inactive: [7] 92 % of control | [9] 88 % of control | [10] 88 % of control

C=C(Br)CN1CCCC1=O
inactive: dose: 75.0 mg/kg/injection, schedule: Q01DX009 (ip), vehicle: saline 98 % of control | dose: 150.0 mg/kg/injection, schedule: Q01DX009 (ip), vehicle: saline 106 % of control | dose: 300.0 mg/kg/injection, schedule: Q01DX009 (ip), vehicle: saline 114 % of control

CCOC(=O)C(Cc1ccc2ccccc2n1)C(C)=O (centres undefined)
inactive: dose: 50.0 mg/kg/injection, schedule: Q01DX009 (ip), vehicle: DMSO 86 % of control | dose: 100.0 mg/kg/injection, schedule: Q01DX009 (ip), vehicle: DMSO 102 % of control

O=C1OCCN1N1C(=O)CC2(CCCCC2)C1=O
inactive: [1] 100 % of control | [6] 107 % of control | [8] 97 % of control

Cc1cc(Cl)cc([N+](=O)[O-])c1
inactive: [18] 96 % of control | dose: 200.0 mg/kg/injection, schedule: Q01DX009 (ip), vehicle: saline with Tween-80 96 % of control | dose: 400.0 mg/kg/injection, schedule: Q01DX009 (ip), vehicle: saline with Tween-80 95 % of control

CC1=C(O)C(=O)C=C2C1=CC=C1[C@@]2(C)CC[C@@]2(C)[C@@H]3C[C@](C)(C(=O)O)CC[C@]3(C)CC[C@]12C
inactive: dose: 5.0 mg/kg/injection, schedule: Q01DX001 (ip), vehicle: carboxymethylcellulose (CMC) 95 % of control and 100 % of control | dose: 10.0 mg/kg/injection, schedule: Q01DX001 (ip), vehicle: carboxymethylcellulose (CMC) 97 % of control | dose: 20.0 mg/kg/injection, schedule: Q01DX001 (ip), vehicle: carboxymethylcellulose (CMC) 103 % of control and 89 % of control | dose: 40.0 mg/kg/injection, schedule: Q01DX001 (ip), vehicle: carboxymethylcellulose (CMC) 122 % of control

O/N=C/c1cnccn1
inactive: [12] 105 % of control | [13] 105 % of control

Nc1nc(N)c(N=Nc2ccc(S(=O)(=O)Nc3ccccn3)cc2)c(=O)[nH]1
inactive: [12] 94 % of control | [13] 94 % of control | [14] 94 % of control

[Cl][Sn]([Cl])([Cl])[Cl]
inactive: [11] 95 % of control

O=C1CCC2CN3CCc4c([nH]c5ccccc45)C3CC2C1 (centres undefined)
inactive: dose: 75.0 mg/kg/injection, schedule: Q01DX001 (ip), vehicle: other 110 % of control

O=C1NC(=O)C(=Cc2csc3ccccc23)C(=O)N1
inactive: [15] 94 % of control | [16] 96 % of control

N/N=C(\c1ccccc1)c1ccc(Cl)cc1
inactive: [15] 96 % of control | [16] 87 % of control | [17] 95 % of control

CCCOC(C)(C)CCC/C(C)=C/COc1ccc(CC)cc1
inactive: [19] 96 % of control | dose: 200.0 mg/kg/injection, schedule: Q04DX002 (ip), vehicle: saline with Tween-80 92 % of control | dose: 400.0 mg/kg/injection, schedule: Q04DX002 (ip), vehicle: saline with Tween-80 105 % of control

CCCCNCCC(SS)c1ccc(Cl)cc1 (centres undefined)
inactive: [20] 106 % of control | [18] 92 % of control | dose: 100.0 mg/kg/injection, schedule: Q04DX003 (ip), vehicle: saline with Tween-80 88 % of control | dose: 200.0 mg/kg/injection, schedule: Q04DX003 (ip), vehicle: saline with Tween-80 93 % of control

CCCCCCC/C(=N\N=C(N)N)c1ccc(O)cc1
inactive: dose: 15.0 mg/kg/injection, schedule: Q01DX Z (ip), vehicle: carboxymethylcellulose (CMC) 93 % of control | dose: 15.0 mg/kg/injection, schedule: Q01DX Z (oral), vehicle: carboxymethylcellulose (CMC) 117 % of control | dose: 30.0 mg/kg/injection, schedule: Q01DX Z (ip), vehicle: carboxymethylcellulose (CMC) 87 % of control | dose: 30.0 mg/kg/injection, schedule: Q01DX Z (oral), vehicle: carboxymethylcellulose (CMC) 106 % of control | dose: 60.0 mg/kg/injection, schedule: Q01DX Z (oral), vehicle: carboxymethylcellulose (CMC) 97 % of control and 103 % of control | dose: 120.0 mg/kg/injection, schedule: Q01DX Z (oral), vehicle: carboxymethylcellulose (CMC) 112 % of control and 90 % of control | dose: 240.0 mg/kg/injection, schedule: Q01DX Z (oral), vehicle: carboxymethylcellulose (CMC) 94 % of control and 95 % of control | dose: 480.0 mg/kg/injection, schedule: Q01DX Z (oral), vehicle: carboxymethylcellulose (CMC) 88 % of control and 90 % of control

CCOC(=O)C1CC2CCC1CC2 (centres undefined)
inactive: dose: 25.0 mg/kg/injection, schedule: Q01DX005 (ip), vehicle: saline with Tween-80 92 % of control | dose: 25.0 mg/kg/injection, schedule: Q01DX009 (ip), vehicle: saline with Tween-80 102 % of control | dose: 25.0 mg/kg/injection, schedule: Q04DX002 (ip), vehicle: saline with Tween-80 106 % of control | dose: 50.0 mg/kg/injection, schedule: Q01DX005 (ip), vehicle: saline with Tween-80 92 % of control | [20] 94 % of control | dose: 50.0 mg/kg/injection, schedule: Q04DX002 (ip), vehicle: saline with Tween-80 94 % of control | dose: 100.0 mg/kg/injection, schedule: Q01DX005 (ip), vehicle: saline with Tween-80 89 % of control | [18] 109 % of control | [19] 97 % of control and 103 % of control

CC(=O)c1ccc(N=Nc2c(N)nc(N)[nH]c2=O)cc1
inactive: [15] 101 % of control | [16] 106 % of control | [17] 119 % of control
